Test results reported in the NIST ThermoML archive (doi:10.1021/je0600808).

Experiments:
[1] = 101.33 kPa, Liquid
[2] = xn = mol fraction of the nth substance listed; conditions: 101 kPa, Liquid

CCCCO [butan-1-ol]
[1]
Conditions | mass density [kg/m3] | viscosity [mPa·s]
293.15 K | 809.82 | 2.963
298.15 K | 806.06 | 2.619
303.15 K | 802.03 | 2.298
313.15 K | 793.29 | 1.786
323.15 K | 786.55 | 1.421
333.15 K | 777.81 | 1.137
343.15 K | 767.03 | 0.92
353.15 K | 757.52 | 0.759
363.15 K | 749.38 | 0.63

CCOC(=O)OCC [diethyl carbonate]
[1]
Conditions | mass density [kg/m3] | viscosity [mPa·s]
293.15 K | 975 | 0.8
298.15 K | 968.97 | 0.746
303.15 K | 962.39 | 0.695
313.15 K | 952.32 | 0.61
323.15 K | 939.78 | 0.541
333.15 K | 928.69 | 0.483
343.15 K | 916.33 | 0.435
353.15 K | 905.02 | 0.393
363.15 K | 893.71 | 0.358

CCOC(=O)OCC [diethyl carbonate] + CCCCCO
[2]
Conditions | mass density, x1 = 0.1016 [kg/m3] | mass density, x1 = 0.2056 [kg/m3] | mass density, x1 = 0.2991 [kg/m3] | viscosity, x1 = 0.1016 [mPa·s] | viscosity, x1 = 0.2056 [mPa·s] | viscosity, x1 = 0.2991 [mPa·s]
293.15 K | 831.8 | 849.16 | 864.58 | 2.879 | 2.155 | 1.735
298.15 K | 827.59 | 844.75 | 859.91 | 2.522 | 1.907 | 1.549
303.15 K | 823.06 | 840.03 | 854.97 | 2.206 | 1.69 | 1.386
313.15 K | 814.72 | 831.26 | 845.78 | 1.723 | 1.351 | 1.132
323.15 K | 805.16 | 821.48 | 835.87 | 1.383 | 1.109 | 0.939
333.15 K | 796.72 | 812.44 | 826.67 | 1.122 | 0.918 | 0.79
343.15 K | 787.31 | 802.62 | 816.48 | 0.919 | 0.766 | 0.67
353.15 K | 778.85 | 793.74 | 807.26 | 0.764 | 0.65 | 0.576
363.15 K | 770.78 | 785.19 | 798.3 | 0.644 | 0.557 | 0.501

CCOC(=O)OCC [diethyl carbonate] + CCCCO
[2]
Conditions | mass density, x1 = 0.1016 [kg/m3] | mass density, x1 = 0.2023 [kg/m3] | mass density, x1 = 0.2974 [kg/m3] | viscosity, x1 = 0.1016 [mPa·s] | viscosity, x1 = 0.2023 [mPa·s] | viscosity, x1 = 0.2974 [mPa·s]
293.15 K | 830.56 | 849.89 | 867.23 | 2.161 | 1.681 | 1.38
298.15 K | 826.34 | 845.4 | 862.6 | 1.909 | 1.504 | 1.254
303.15 K | 821.75 | 840.53 | 857.48 | 1.685 | 1.339 | 1.13
313.15 K | 812.55 | 831.22 | 847.88 | 1.345 | 1.091 | 0.932
323.15 K | 804.95 | 822.83 | 838.91 | 1.097 | 0.906 | 0.785
333.15 K | 795.85 | 813.37 | 829.07 | 0.904 | 0.761 | 0.668
343.15 K | 784.94 | 802.09 | 817.6 | 0.749 | 0.642 | 0.572
353.15 K | 775.15 | 792.01 | 807.21 | 0.63 | 0.549 | 0.496
363.15 K | 766.42 | 782.78 | 797.61 | 0.536 | 0.475 | 0.434

CCOC(=O)OCC [diethyl carbonate] + CCCO
[2]
Conditions | mass density, x1 = 0.0993 [kg/m3] | mass density, x1 = 0.2003 [kg/m3] | mass density, x1 = 0.3011 [kg/m3] | viscosity, x1 = 0.0993 [mPa·s] | viscosity, x1 = 0.2003 [mPa·s] | viscosity, x1 = 0.3011 [mPa·s]
293.15 K | 829.06 | 852 | 872.49 | 1.668 | 1.347 | 1.147
298.15 K | 824.24 | 846.98 | 867.35 | 1.49 | 1.211 | 1.037
303.15 K | 819.57 | 841.86 | 861.83 | 1.328 | 1.089 | 0.938
313.15 K | 810.34 | 832.49 | 852.34 | 1.073 | 0.896 | 0.783
323.15 K | 798.04 | 819.74 | 839.43 | 0.887 | 0.751 | 0.666
333.15 K | 790.59 | 811.83 | 831 | 0.739 | 0.636 | 0.572
343.15 K | 778.86 | 799.8 | 818.79 | 0.618 | 0.542 | 0.493
353.15 K | 770.55 | 790.85 | 809.27 | 0.524 | 0.466 | 0.43
363.15 K | 761.19 | 780.98 | 799 | 0.448 | 0.405 | 0.378

CCCCCO [pentan-1-ol]
[1]
Conditions | mass density [kg/m3] | viscosity [mPa·s]
293.15 K | 814.51 | 4.117
298.15 K | 810.73 | 3.556
303.15 K | 806.77 | 3.06
313.15 K | 799.05 | 2.332
323.15 K | 789.81 | 1.822
333.15 K | 781.81 | 1.44
343.15 K | 772.84 | 1.146
353.15 K | 764.79 | 0.931
363.15 K | 757.17 | 0.767

CCCO [propan-1-ol]
[1]
Conditions | mass density [kg/m3] | viscosity [mPa·s]
293.15 K | 803.62 | 2.238
298.15 K | 799.41 | 1.981
303.15 K | 795.27 | 1.745
313.15 K | 786.62 | 1.381
323.15 K | 773.91 | 1.115
333.15 K | 767.31 | 0.907
343.15 K | 755.95 | 0.742
353.15 K | 748.41 | 0.615
363.15 K | 739.7 | 0.515
